Values quoted from earlier work, collected in paper PMC11679033, “Assessing the Potential Synergistic/Antagonistic Effects of Citrinin and Cannabidiol on SH-SY5Y, HepG2, HEK293 Cell Lines, and Human Lymphocytes” (Toxins, 2024).

Tests used:
[1] = test system: HepG2 cells; conditions: cited from earlier work
[2] = test system: cultured human lymphocytes; parameters: method as in PMID 17265422; conditions: 48 h exposure, 60–100 μM; cited from earlier work
[3] = test system: HEK293 cells; parameters: method as in PMID 13678658; conditions: HEK293, concentrations ≤60 μM for 24 h; cited from earlier work
[4] = test system: buccal-derived cells (TR146); parameters: method as in PMID 30341733; conditions: cited from earlier work
[5] = test system: human liver cell line (HepG2); parameters: method as in PMID 30341733; conditions: cited from earlier work

| Structure (SMILES) | DNA damage in comet assay ([1]; HepG2, 24 h, sub-IC50 and near IC50 concentrations) | genotoxicity in comet assay ([1]; HepG2) | induction of MNi vs negative controls [2] | toxic effect in Fpg-modified comet assay [3] | level above which damage was found in MN assay [4] | level above which damage was found in MN assay [5] |
| --- | --- | --- | --- | --- | --- | --- |
| CC1=C2C(=CO[C@H](C)[C@H]2C)C(O)=C(C(=O)O)C1=O [CIT, citrinin] | induced significant DNA damage | no significant genotoxicity | significant induction of MNi | did not show toxic effect | – | – |
| C=C(C)[C@@H]1CCC(C)=C[C@H]1c1c(O)cc(CCCCC)cc1O [CBD, cannabidiol] | – | – | – | – | above 0.2 µM | above 0.2 µM |
